Consider 7 molecules from US8492561B2, “Azetidine derivatives as sphingosine 1-phosphate (S1P) receptor modulators” (Allergan, Inc., priority 2010, dated 2013).

For this assay, the target named is T1, human S1P1 receptor (Homo sapiens, UniProt P21453).
T1 construct: expressed in transfected cells; membranes from cells stably expressing the S1P1 receptor
T1 sequence (P21453 whole entry): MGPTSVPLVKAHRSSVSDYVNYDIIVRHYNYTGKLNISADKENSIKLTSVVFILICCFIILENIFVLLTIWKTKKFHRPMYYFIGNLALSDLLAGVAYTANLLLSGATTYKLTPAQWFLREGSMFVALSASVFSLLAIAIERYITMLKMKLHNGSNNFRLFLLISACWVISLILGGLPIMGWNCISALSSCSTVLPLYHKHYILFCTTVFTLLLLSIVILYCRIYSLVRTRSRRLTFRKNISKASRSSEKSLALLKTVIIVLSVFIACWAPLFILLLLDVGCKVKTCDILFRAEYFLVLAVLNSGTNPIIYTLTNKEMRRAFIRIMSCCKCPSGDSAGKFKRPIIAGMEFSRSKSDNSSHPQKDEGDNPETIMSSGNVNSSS
As to the kind of experiment: GTP γ35S binding assay for S1P1 activity. Type of assay: biochemical. The settings on record: membranes of cells stably expressing the S1P1 receptor, agonist potency. How it is done:
Compounds were synthesized and tested for S1P1 activity using the GTP γ^35S binding assay. These compounds may be assessed for their ability to activate or block activation of the human S1P1 receptor in cells stably expressing the S1P1 receptor.
GTP γ^35S binding was measured in the medium containing (mM) HEPES 25, pH 7.4, MgCl2 10, NaCl 100, dithiothreitol 0.5, digitonin 0.003%, 0.2 nM GTP γ^35S, and 5 μg membrane protein in a volume of 150 μl. Test compounds were included in the concentration range from 0.08 to 5,000 nM unless indicated otherwise. Membranes were incubated with 100 μM 5′-adenylylimmidodiphosphate for 30 min, and subsequently with 10 μM GDP for 10 min on ice. Drug solutions and membrane were mixed, and then reactions were initiated by adding GTP γ^35S and continued for 30 min at 25° C. Reaction mixtures were filtered over Whatman GF/B filters under vacuum, and washed three times with 3 mL of ice-cold buffer (HEPES 25, pH7.4, MgCl2 10 and NaCl 100). Filters were dried and mixed with scintillant, and counted for ^35S activity using a β-counter. Agonist-induced GTP γ^35S binding was obtained by subtracting that in the absence of agonist. Binding data were analyzed using a non-linear regression method. In case of antagonist assay, the reaction mixture contained 10 nM S1P in the presence of test antagonist at concentrations ranging from 0.08 to 5000 nM.
(Binding of GTPγS marks nucleotide exchange on a G protein.)
What is called EC50 is the concentration needed to bring the measured effect to its halfway point. Low readings indicate higher potency in that assay, high ones lower potency in that assay. `Cc1ccc(CC(C#Cc2ccc(CN3CC(C(=O)O)C3)cc2)c2ccc(Cl)cc2)cc1C` (stereo not shown) [Compound 4, 1-{4-[3-(4-chlorophenyl)-4-(3,4-dimethylphenyl)but-1-yn-1-yl]benzyl}azetidine-3-carboxylic acid] showed an EC50 of 128 nM.

For `COc1cccc(C(C#Cc2ccc(CN3CC(C(=O)O)C3)cc2)Cc2ccc(C)c(C)c2)c1` (stereo not shown) [Compound 3, 1-{4-[4-(3,4-dimethylphenyl)-3-(3-methoxyphenyl)but-1-yn-1-yl]benzyl}azetidine-3-carboxylic acid], the half-maximal effective concentration (EC50) worked out at 42.3 nM.

Turning to `Cc1ccc(CC(C#Cc2ccc(CN3CC(C(=O)O)C3)cc2)c2cccc(Cl)c2)cc1C` (stereo not shown) [Compound 1, 1-{4-[3-(3-chlorophenyl)-4-(3,4-dimethylphenyl)but-1-yn-1 yl]benzyl}azetidine-3-carboxylic acid], the EC50 was 16 nM.

In turn, `Cc1ccc(CC(C#Cc2ccc(CN3CC(C(=O)O)C3)cc2C)c2cccc(Cl)c2)cc1C` (stereo not shown) [Compound 2, 1-{4-[3-(3-Chloro-phenyl)-4-(3,4-dimethyl-phenyl)-but-1-ynyl]-3-methyl-benzyl}-azetidine-3-carboxylic acid] gave an EC50 of 607 nM.

`Cc1ccc(CC(/C=C/c2ccc(CN3CC(C(=O)O)C3)cc2)c2cccc(F)c2)cc1C` (stereo not shown) [Compound 6, 1-{4-[(1E)-4-(3,4-dimethylphenyl)-3-(3-fluorophenyl)but-1-en-1-yl]benzyl}azetidine-3-carboxylic acid] had an EC50 of 58.7 nM.

`O=C(O)C1CN(Cc2ccc(C#CC(Cc3ccc(Cl)c(Cl)c3)c3cccc(F)c3)cc2)C1` (stereo not shown) [Compound 5, 1-{4-[4-(3,4-Dichloro-phenyl)-3-(3-fluoro-phenyl)-but-1-ynyl]-benzyl}-azetidine-3-carboxylic acid]: the EC50 amounted to 310 nM.

As for `Cc1cccc(C(C#Cc2ccc(CN3CC(C(=O)O)C3)cc2)Cc2ccc(C)c(C)c2)c1` (stereo not shown) [Compound 7, 1-{4-[4-(3,4-dimethylphenyl)-3-(3-methylphenyl)but-1-yn-1-yl]benzyl}azetidine-3-carboxylic acid], a half-maximal response (EC50) required 91.9 nM.
